The text below walks through data of US8012956B2, “Tropane compounds” (Exelixis, Inc., priority 2007, dated 2011).

In the assay the target is HSP90 (Homo sapiens, UniProt P07900). The assay can be described thus: HSP90 inhibition (HSP90 IC50). Type of assay: biochemical.
On to `CC(=O)c1ccc(N2[C@@H]3CC[C@H]2C[C@@H](NC(=O)c2ccc(C(N)=O)c(NCc4ccccc4)c2)C3)nc1` [N4-[8-(5-acetylpyridin-2-yl)-8-azabicyclo[3.2.1]oct-3-endo-yl]-2-[(phenylmethyl)amino]benzene-1,4-dicarboxamide], for which the IC50 is 500 to 999 nM.
As for `COc1cccc(C(=O)NC2CC3CCC(C2)N3c2ccc(C(=O)NC(C)c3ccc(N4CCNCC4)nc3)cn2)c1C` (stereo not drawn) [6-[3-endo-({[2-methyl-3-(methyloxy)phenyl]carbonyl}amino)-8-azabicyclo[3.2.1]oct-8-yl]-N-[1-(6-piperazin-1-ylpyridin-3-yl)ethyl]pyridine-3-carboxamide], the figure is less than 500 nM; as for `COc1cccc(NC(=O)c2ccc(N3[C@@H]4CC[C@H]3C[C@@H](NC(=O)c3cccc(OC)c3C)C4)nc2)c1` [6-[3-endo-({[2-methyl-3-(methyloxy)phenyl]carbonyl}amino)-8-azabicyclo[3.2.1]oct-8-yl]-N-[3-(methyloxy)phenyl]pyridine-3-carboxamide], 2000 to 10000 nM.
The result for `COc1cccc(C(=O)N[C@H]2C[C@H]3CC[C@@H](C2)N3c2ccc(C(=O)NCc3ccc(F)cc3F)cn2)c1C` [N-[(2,4-difluorophenyl)methyl]-6-[3-endo-({[2-methyl-3-(methyloxy)phenyl]carbonyl}amino)-8-azabicyclo[3.2.1]oct-8-yl]pyridine-3-carboxamide] reads less than 500 nM.
As for `Cc1cc(C(N)=O)c(N[C@H]2CCOC2)cc1C(=O)NC1CC2CCC(C1)N2c1ccc(C(=O)C2CC2)cn1` (stereo partly drawn) [N-{8-[5-(cyclopropylcarbonyl)pyridin-2-yl]-8-azabicyclo[3.2.1]oct-3-endo-yl}-2-methyl-5-[(3S)-tetrahydrofuran-3-ylamino]benzene-1,4-dicarboxamide], the figure is less than 500 nM.
In the case of `COc1cccc(C(=O)N[C@H]2C[C@H]3CC[C@@H](C2)N3c2ccc(C(=O)Nc3ccc(F)cc3)cn2)c1C` [N-(4-fluorophenyl)-6-[3-endo-({[2-methyl-3-(methyloxy)phenyl]carbonyl}amino)-8-azabicyclo[3.2.1]oct-8-yl]pyridine-3-carboxamide], the IC50 lay within 1000 to 2000 nM.
As for `NC(=O)c1cc(Br)c(C(=O)N[C@H]2C[C@H]3CC[C@@H](C2)N3c2ccc(C(=O)C3CC3)cn2)cc1N` [5-amino-2-bromo-N-{8-[5-(cyclopropylcarbonyl)pyridin-2-yl]-8-azabicyclo[3.2.1]oct-3-endo-yl}benzene-1,4-dicarboxamide], the figure is less than 500 nM; as for `Cc1cc(CO)ccc1C(=O)N[C@H]1C[C@H]2CC[C@@H](C1)N2c1ccc(C(=O)NCc2ccccc2)cn1` [6-[3-endo-({[4-(hydroxymethyl)-2-methylphenyl]carbonyl}amino)-8-azabicyclo[3.2.1]oct-8-yl]-N-(phenylmethyl)pyridine-3-carboxamide], less than 500 nM.
Take `COc1cccc(C(=O)N[C@H]2C[C@H]3CC[C@@H](C2)N3c2ccc(C(=O)NC3CCN(Cc4ccccc4)CC3)cn2)c1C` [6-[3-endo-({[2-methyl-3-(methyloxy)phenyl]carbonyl}amino)-8-azabicyclo[3.2.1]oct-8-yl]-N-[1-(phenylmethyl)piperidin-4-yl]pyridine-3-carboxamide]: the IC50 was less than 500 nM.
The result for `CC(=O)c1ccc(N2[C@@H]3CC[C@H]2C[C@@H](NC(=O)c2ccc(C(N)=O)c(NC4CCOC4)c2)C3)nc1` (stereo partly drawn) [N4-[8-(5-acetylpyridin-2-yl)-8-azabicyclo[3.2.1]oct-3-endo-yl]-2-(tetrahydrofuran-3-ylamino)benzene-1,4-dicarboxamide] reads less than 500 nM; that for `CC(C)CC(=O)c1ccc(N2[C@@H]3CC[C@H]2C[C@@H](NC(=O)c2ccc(C(N)=O)c(NCC4CC4)c2)C3)nc1` [2-[(cyclopropylmethyl)amino]-N4-{8-[5-(3-methylbutanoyl)pyridin-2-yl]-8-azabicyclo[3.2.1]oct-3-endo-yl}benzene-1,4-dicarboxamide], 1000 to 2000 nM.
Compound `COc1c(C(N)=O)ccc(C(=O)NC2CC3CCC(C2)N3c2ccc(C(=O)N[C@@H](C)c3ccc(N4CCN(C)CC4)cc3)cn2)c1C` (stereo partly drawn) [2-methyl-3-(methyloxy)-N-(8-{5-[({(1S)-1-[4-(4-methylpiperazin-1-yl)phenyl]ethyl}amino)carbonyl]pyridin-2-yl}-8-azabicyclo[3.2.1]oct-3-endo-yl)benzene-1,4-dicarboxamide] registered an IC50 of less than 500 nM.
As for `COc1cccc(C(=O)N[C@H]2C[C@H]3CC[C@@H](C2)N3c2ccc(C(=O)NC3CCCC3)cn2)c1C` [N-cyclopentyl-6-[3-endo-({[2-methyl-3-(methyloxy)phenyl]carbonyl}amino)-8-azabicyclo[3.2.1]oct-8-yl]pyridine-3-carboxamide], the figure is 500 to 999 nM.
`Cc1cc(C(N)=O)c(NC2CCCC2)cc1C(=O)N[C@H]1C[C@H]2CC[C@@H](C1)N2c1ccc(C(=O)C2CC2)cn1` [5-(cyclopentylamino)-N-{8-[5-(cyclopropylcarbonyl)pyridin-2-yl]-8-azabicyclo[3.2.1]oct-3-endo-yl}-2-methylbenzene-1,4-dicarboxamide]: the concentration for half-maximal inhibition (IC50) was less than 500 nM.
The result for `NC(=O)c1ccc(C(=O)N[C@H]2C[C@H]3CC[C@@H](C2)N3c2ccc(C(=O)CCc3ccccc3)cn2)cc1NCC1CC1` [2-[(cyclopropylmethyl)amino]-N4-{8-[5-(3-phenylpropanoyl)pyridin-2-yl]-8-azabicyclo[3.2.1]oct-3-endo-yl}benzene-1,4-dicarboxamide] reads 2000 to 10000 nM.
As for `CCNc1cc(C(N)=O)c(N[C@H](C)CC)cc1C(=O)NC1CC2CCC(C1)N2c1ccc(C(=O)C2CC2)cn1` (stereo partly drawn) [N-{8-[5-(cyclopropylcarbonyl)pyridin-2-yl]-8-azabicyclo[3.2.1]oct-3-endo-yl}-2-(ethylamino)-5-{[(1R)-1-methylpropyl]amino}benzene-1,4-dicarboxamide], the figure is 2000 to 10000 nM.
In turn, `COc1cc(CNC(=O)c2ccc(N3[C@@H]4CC[C@H]3C[C@@H](NC(=O)c3cccc(OC)c3C)C4)nc2)cc(OC)c1` [N-{[3,5-bis(methyloxy)phenyl]methyl}-6-[3-endo-({[2-methyl-3-(methyloxy)phenyl]carbonyl}amino)-8-azabicyclo[3.2.1]oct-8-yl]pyridine-3-carboxamide] returned an IC50 of 1000 to 2000 nM.
The result for `COc1cccc(C(=O)NC2CC3CCC(C2)N3c2ccc(C(=O)NC3CCN(c4ccccc4)CC3)cn2)c1C` (stereo not drawn) [6-[3-endo-({[2-methyl-3-(methyboxy)phenyl]carbonyl}amino)-8-azabicyclo[3.2.1]oct-8-yl]-N-(1-phenylpiperidin-4-yl)pyridine-3-carboxamide] reads 2000 to 10000 nM; that for `COc1cccc(C(=O)N[C@H]2C[C@H]3CC[C@@H](C2)N3c2ccc(C(=O)NCc3c(F)cccc3OC)cn2)c1C` [N-{[2-fluoro-6-(methyloxy)phenyl]methyl}-6-[3-endo-({[2-methyl-3-(methyloxy)phenyl]carbonyl}amino)-8-azabicyclo[3.2.1]oct-8-yl]pyridine-3-carboxamide], 1000 to 2000 nM.
`COc1ccc([C@H](C)NC(=O)c2ccc(N3C4CCC3CC(NC(=O)c3cccc(OC)c3C)C4)nc2)cc1` (some centres unmarked) displayed an IC50 of less than 500 nM.
The result for `N=C(N)c1ccc(C(=O)N[C@H]2C[C@H]3CC[C@@H](C2)N3c2ccc(C(=O)NCc3ccccc3)cn2)cc1` [6-{3-endo-[({4-[amino(imino)methyl]phenyl}carbonyl)amino]-8-azabicyclo[3.2.1]oct-8-yl}-N-(phenylmethyl)pyridine-3-carboxamide] reads 2000 to 10000 nM.
As to `COc1ccc([C@H](C)NC(=O)c2ccc(N3C4CCC3CC(NC(=O)c3cccc(OC)c3C)C4)nc2)c(F)c1` (stereo partly drawn) [N-{(1S)-1-[2-fluoro-4-(methyloxy)phenyl]ethyl}-6-[3-endo-({[2-methyl-3-(methyloxy)phenyl]carbonyl}amino)-8-azabicyclo[3.2.1]oct-8-yl]pyridine-3-carboxamide], the IC50 is less than 500 nM.
The result for `CC(=O)c1ccc(N2[C@@H]3CC[C@H]2C[C@@H](NC(=O)c2ccc(C(N)=O)c(Nc4ccccc4)c2)C3)nc1` [N4-[8-(5-acetylpyridin-2-yl)-8-azabicyclo[3.2.1]oct-3-endo-yl]-2-(phenylamino)benzene-1,4-dicarboxamide] reads less than 500 nM; that for `Cc1cc(C(=O)N[C@H]2C[C@H]3CC[C@@H](C2)N3c2ccc(C(=O)NCc3ccccc3)cn2)c(C)cc1C(N)=O` [2,5-dimethyl-N-[8-(5-{[(phenylmethyl)amino]carbonyl}pyridin-2-yl)-8-azabicyclo[3.2.1]oct-3-endo-yl]benzene-1,4-dicarboxamide], less than 500 nM; that for `Cc1cc(C(N)=O)c(CC(C)C)cc1C(=O)N[C@H]1C[C@H]2CC[C@@H](C1)N2c1ccc(C(=O)C2CC2)cn1` [N-{8-(5-(cyclopropylcarbonyl)pyridin-2-yl]-8-azabicyclo[3.2.1]oct-3-endo-yl}-2-methyl-5-(2-methylpropyl)benzene-1,4-dicarboxamide], less than 500 nM.
As for `COc1cc(C(=O)NC2CC3CCC(C2)N3c2ccc(C(=O)N[C@@H](C)c3ccc(N4CCN(C)CC4)cc3)cn2)ccc1C(N)=O` (stereo partly drawn) [2-(methyloxy)-N4-(8-{5-[({(1S)-1-[4-(4-methylpiperazin-1-yl)phenyl]ethyl}amino)carbonyl]pyridin-2-yl}-8-azabicyclo[3.2.1]oct-3-endo-yl)benzene-1,4-dicarboxamide], the figure is less than 500 nM.
As for `COc1cccc(C(=O)N[C@H]2C[C@H]3CC[C@@H](C2)N3c2ccc(C(=O)Nc3ccc(C)cc3)cn2)c1C` [6-[3-endo-({[2-methyl-3-(methyloxy)phenyl]carbonyl}amino)-8-azabicyclo[3.2.1]oct-8-yl]-N-(4-methylphenyl)pyridine-3-carboxamide], the figure is 1000 to 2000 nM; as for `CCC(Nc1cc(C(=O)N[C@H]2C[C@H]3CC[C@@H](C2)N3c2ccc(C(=O)C3CC3)cn2)c(C)cc1C(N)=O)C1CC1` (stereo partly drawn) [N-{8-(5-(cyclopropylcarbonyl)pyridin-2-yl]-8-azabicyclo[3.2.1]oct-3-endo-yl}-5-[(1-cyclopropylpropyl)amino]-2-methylbenzene-1,4-dicarboxamide], less than 500 nM; as for `NC(=O)c1cc(Br)c(C(=O)N[C@H]2C[C@H]3CC[C@@H](C2)N3c2ccc(C(=O)C3CC3)cn2)cc1NCC1CC1` [2-bromo-N-{8-[5-(cyclopropylcarbonyl)pyridin-2-yl]-8-azabicyclo[3.2.1]oct-3-endo-yl}-5-[(cyclopropylmethyl)amino]benzene-1,4-dicarboxamide], less than 500 nM.

By IC50 is commonly meant the point on the concentration scale where inhibition reaches its midpoint. A lower IC50 goes with inhibition by little substance.
